Assay [1] deals with Calpain activity in SH-SY5Y cells (SBDP-150). Briefly: SH-SY5Y Spectrin western blot assay (SBDP-150 breakdown product, A23187-induced). Format: cell-based. The note with it: Homo sapiens; Column D; SH-SY5Y cells, A23187-induced SBDP-150; read-out: SH-SY5Y Spectrin IC50. A general note: Immunoblotting shows a protein as a band on a membrane.
For the next assay, the target named is T1, Human Calpain 1/NS1 (Homo sapiens, UniProt P07384).
T1 sequence (P07384 1-714): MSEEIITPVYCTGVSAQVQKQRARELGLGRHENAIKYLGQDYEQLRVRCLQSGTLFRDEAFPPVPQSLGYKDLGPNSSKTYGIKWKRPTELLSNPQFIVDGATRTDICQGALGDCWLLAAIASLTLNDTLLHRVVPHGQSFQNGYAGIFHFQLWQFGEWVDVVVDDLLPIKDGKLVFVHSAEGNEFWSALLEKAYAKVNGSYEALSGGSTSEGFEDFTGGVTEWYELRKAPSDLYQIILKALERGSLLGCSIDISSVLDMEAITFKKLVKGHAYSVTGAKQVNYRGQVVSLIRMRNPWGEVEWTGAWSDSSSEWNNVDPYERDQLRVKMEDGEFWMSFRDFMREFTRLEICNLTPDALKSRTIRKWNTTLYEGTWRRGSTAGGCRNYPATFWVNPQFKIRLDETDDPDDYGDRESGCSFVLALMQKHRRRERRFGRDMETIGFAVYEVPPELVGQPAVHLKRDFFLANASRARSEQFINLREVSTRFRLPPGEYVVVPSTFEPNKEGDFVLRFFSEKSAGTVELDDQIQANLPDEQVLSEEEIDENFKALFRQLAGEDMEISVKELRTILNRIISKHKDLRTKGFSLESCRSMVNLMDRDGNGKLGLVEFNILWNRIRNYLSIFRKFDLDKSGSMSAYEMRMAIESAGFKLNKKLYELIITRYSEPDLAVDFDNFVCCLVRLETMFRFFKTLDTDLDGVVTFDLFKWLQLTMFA
T1 sequence (P04632 1-268 partner): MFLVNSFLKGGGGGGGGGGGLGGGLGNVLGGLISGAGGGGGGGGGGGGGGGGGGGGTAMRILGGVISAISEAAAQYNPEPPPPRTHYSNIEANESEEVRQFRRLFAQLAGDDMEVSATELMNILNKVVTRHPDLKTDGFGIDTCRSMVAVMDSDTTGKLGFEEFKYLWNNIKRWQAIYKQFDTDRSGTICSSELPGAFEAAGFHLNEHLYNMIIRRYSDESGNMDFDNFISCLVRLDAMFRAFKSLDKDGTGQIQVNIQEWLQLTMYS
Briefly: Calpain inhibition continuous fluorescence (FRET) assay, Human Calpain 1/NS1. Format: biochemical. The settings on record: Column A; read-out: Human Calpain 1/NS1 IC50. The procedure, abridged:
(§1)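 Calpain activity is measured kinetically with a quenched FRET peptide in 50 mM Tris pH 7.5, 100 mM NaCl, 1 mM DTT, with CaCl2 triggering activation. Rates over 1-5 min are plotted against log inhibitor to obtain IC50 by 4-parameter logistic fitting.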

Another assay addresses T2, Human Calpain 9/NS1 (Homo sapiens, UniProt O14815).
T2 sequence (O14815 1-690): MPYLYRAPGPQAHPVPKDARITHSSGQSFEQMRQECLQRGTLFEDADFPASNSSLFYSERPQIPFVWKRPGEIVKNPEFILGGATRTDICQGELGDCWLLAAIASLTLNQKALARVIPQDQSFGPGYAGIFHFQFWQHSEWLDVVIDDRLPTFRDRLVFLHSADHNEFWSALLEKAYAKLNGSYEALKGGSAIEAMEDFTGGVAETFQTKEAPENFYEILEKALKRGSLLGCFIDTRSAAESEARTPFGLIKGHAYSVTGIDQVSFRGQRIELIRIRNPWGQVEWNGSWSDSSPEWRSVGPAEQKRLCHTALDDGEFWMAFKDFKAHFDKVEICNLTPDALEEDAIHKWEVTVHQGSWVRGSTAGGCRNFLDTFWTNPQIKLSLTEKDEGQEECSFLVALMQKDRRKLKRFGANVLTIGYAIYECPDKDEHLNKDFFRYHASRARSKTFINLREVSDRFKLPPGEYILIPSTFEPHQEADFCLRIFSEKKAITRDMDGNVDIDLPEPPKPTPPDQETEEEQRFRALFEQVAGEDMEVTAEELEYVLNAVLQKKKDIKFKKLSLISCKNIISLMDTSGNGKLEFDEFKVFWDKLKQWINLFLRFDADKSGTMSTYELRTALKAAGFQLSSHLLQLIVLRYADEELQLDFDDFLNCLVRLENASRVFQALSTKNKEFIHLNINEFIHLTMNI
T2 sequence (P04632 1-268 partner): T1 sequence (P04632 1-268 partner)
As to the kind of experiment: Calpain inhibition continuous fluorescence (FRET) assay, Human Calpain 9/NS1. Format: biochemical. The note with it: Column C; read-out: Human Calpain 9/NS1 IC50. The procedure, abridged:
as §1

Another assay deals with T3, Human Calpain 2/NS1 (Homo sapiens, UniProt P17655).
T3 sequence (P17655 1-700): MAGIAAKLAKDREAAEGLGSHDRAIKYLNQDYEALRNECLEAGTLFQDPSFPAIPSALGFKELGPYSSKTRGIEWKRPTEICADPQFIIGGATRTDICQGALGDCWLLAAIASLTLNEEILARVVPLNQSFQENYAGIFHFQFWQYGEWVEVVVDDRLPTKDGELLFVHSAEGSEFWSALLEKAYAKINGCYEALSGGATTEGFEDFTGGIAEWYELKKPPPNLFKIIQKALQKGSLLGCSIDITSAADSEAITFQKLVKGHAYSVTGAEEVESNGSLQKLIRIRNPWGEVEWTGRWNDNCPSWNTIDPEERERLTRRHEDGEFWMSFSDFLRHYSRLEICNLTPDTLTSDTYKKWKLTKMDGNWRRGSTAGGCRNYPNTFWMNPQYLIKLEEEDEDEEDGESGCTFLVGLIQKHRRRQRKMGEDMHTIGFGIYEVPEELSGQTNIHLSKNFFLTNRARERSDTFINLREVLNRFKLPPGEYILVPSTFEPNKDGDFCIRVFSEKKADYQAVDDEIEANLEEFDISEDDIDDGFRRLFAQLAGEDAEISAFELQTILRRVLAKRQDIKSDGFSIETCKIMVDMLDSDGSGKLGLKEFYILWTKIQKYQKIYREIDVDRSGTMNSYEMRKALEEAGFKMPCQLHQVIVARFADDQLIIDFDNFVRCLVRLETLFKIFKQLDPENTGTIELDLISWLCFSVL
T3 sequence (P04632 1-268 partner): T1 sequence (P04632 1-268 partner)
As to the kind of experiment: Calpain inhibition continuous fluorescence (FRET) assay, Human Calpain 2/NS1. Format: biochemical. The settings on record: Column B; read-out: Human Calpain 2/NS1 IC50. In short, it runs like this: as §1

Assay [2] has as its system Calpain activity in SH-SY5Y cells. As to the kind of experiment: SH-SY5Y + AMC fluorescence assay (Suc-LLVY-AMC substrate). The settings on record: Column E, read-out: SH-SY5Y + AMC IC50. Format: cell-based.

13 molecules from US11339130B1 (Blade Therapeutics, Inc., priority 2016, dated 2022) can be followed below.

Where only a bound is given, the exact number is not on record here.

Turning to `Cc1cc(C(=O)N[C@@H](Cc2ccccc2)C(=O)C(N)=O)n(-c2ccnc(Cl)n2)n1` [Compound 246, (S)—N-(4-amino-3,4-dioxo-1-phenylbutan-2-yl)-1-(2-chloropyrimidin-4-yl)-3-methyl-1H-pyrazole-5-carboxamide], the IC50 in assay [1] is 10 to 25 µM; on Human Calpain 1/NS1, less than 3 µM; on Human Calpain 9/NS1, less than 3 µM; at Human Calpain 2/NS1, less than 3 µM; in assay [2], less than 10 µM.
Regarding `Cc1nc(-c2ccc(F)cc2)c(C(=O)N[C@@H](Cc2ccccc2)C(=O)C(N)=O)o1` [Compound 248, (S)—N-(4-amino-3,4-dioxo-1-phenylbutan-2-yl)-4-(4-fluorophenyl)-2-methyloxazole-5-carboxamide], the IC50 in assay [1] was less than 10 µM; on Human Calpain 1/NS1, less than 3 µM; on Human Calpain 9/NS1, less than 3 µM; at Human Calpain 2/NS1, less than 3 µM; in assay [2], less than 10 µM.
Consider `NC(=O)C(=O)[C@H](Cc1ccccc1)NC(=O)c1c(-c2ccccc2)oc2ccccc12` [Compound 249, (S)—N-(4-amino-3,4-dioxo-1-phenylbutan-2-yl)-2-phenylbenzofuran-3-carboxamide], for which the IC50 in assay [1] is 10 to 25 µM; at Human Calpain 1/NS1, less than 3 µM; at Human Calpain 9/NS1 it was less than 3 µM; at Human Calpain 2/NS1, less than 3 µM; in assay [2], more than 25 µM.
Turning to `NC(=O)C(=O)[C@H](Cc1ccccc1)NC(=O)c1cn(CC2CC2)nc1-c1ccccc1` [Compound 251, (S)—N-(4-amino-3,4-dioxo-1-phenylbutan-2-yl)-1-(cyclopropylmethyl)-3-phenyl-1H-pyrazole-4-carboxamide], the IC50 in assay [1] is more than 25 µM; on Human Calpain 1/NS1 it was less than 3 µM; on Human Calpain 9/NS1, less than 3 µM; on Human Calpain 2/NS1 it was less than 3 µM; in assay [2], more than 25 µM.
For `NC(=O)C(=O)[C@H](Cc1ccccc1)NC(=O)c1cn(C#Cc2ccccc2)c2ccccc12` [Compound 252, (S)—N-(4-amino-3,4-dioxo-1-phenylbutan-2-yl)-1-(phenylethynyl)-1H-indole-3-carboxamide], the IC50 is more than 25 µM in assay [1]; more than 10 µM at Human Calpain 1/NS1; more than 10 µM on Human Calpain 9/NS1; more than 10 µM at Human Calpain 2/NS1; more than 25 µM in assay [2].
For the molecule `Cc1nc(-c2ccccc2)c(C(=O)N[C@@H](CC(C)C)C(=O)C(N)=O)o1` [Compound 253, (S)—N-(1-amino-5-methyl-1,2-dioxohexan-3-yl)-2-methyl-4-phenyloxazole-5-carboxamide], the IC50 in assay [1] is 10 to 25 µM; on Human Calpain 1/NS1, less than 3 µM; at Human Calpain 9/NS1 it was less than 3 µM; at Human Calpain 2/NS1 it was less than 3 µM; in assay [2], more than 25 µM.
As to `NC(=O)C(=O)[C@H](Cc1ccccc1)NC(=O)c1oc(C(F)(F)F)nc1-c1ccccc1` [Compound 255, (S)—N-(4-amino-3,4-dioxo-1-phenylbutan-2-yl)-4-phenyl-2-(trifluoromethyl)oxazole-5-carboxamide], the IC50 was less than 10 µM in assay [1]; less than 3 µM on Human Calpain 1/NS1; less than 3 µM on Human Calpain 9/NS1; less than 3 µM on Human Calpain 2/NS1; less than 10 µM in assay [2].
With `Cc1n[nH]c(-c2ccccc2)c1C(=O)N[C@@H](Cc1ccccc1)C(=O)C(N)=O` [Compound 257, (S)—N-(4-amino-3,4-dioxo-1-phenylbutan-2-yl)-3-methyl-5-phenyl-1H-pyrazole-4-carboxamide], the IC50 was 10 to 25 µM in assay [1]; less than 3 µM on Human Calpain 1/NS1; less than 3 µM on Human Calpain 9/NS1; less than 3 µM at Human Calpain 2/NS1; less than 10 µM in assay [2].
In the case of `Cn1nc(C(=O)N[C@@H](Cc2ccccc2)C(=O)C(N)=O)c(-c2ccccc2)n1` [Compound 259, (S)—N-(4-amino-3,4-dioxo-1-phenylbutan-2-yl)-2-methyl-5-phenyl-2H-1,2,3-triazole-4-carboxamide], the IC50 was less than 10 µM in assay [1]; less than 3 µM at Human Calpain 1/NS1; less than 3 µM on Human Calpain 9/NS1; less than 3 µM on Human Calpain 2/NS1; 10 to 25 µM in assay [2].
As to `Cc1nc(-c2ccccn2)c(C(=O)N[C@@H](Cc2ccccc2)C(=O)C(N)=O)o1` [Compound 266, (S)—N-(4-amino-3,4-dioxo-1-phenylbutan-2-yl)-2-methyl-4-(pyridin-2-yl)oxazole-5-carboxamide], the IC50 in assay [1] was more than 25 µM; on Human Calpain 1/NS1, less than 3 µM; at Human Calpain 9/NS1, less than 3 µM; on Human Calpain 2/NS1, less than 3 µM; in assay [2] it was more than 25 µM.
Turning to `Cn1cnc(-c2ccccc2)c1C(=O)N[C@@H](Cc1ccccc1)C(=O)C(N)=O` [Compound 268, (S)—N-(4-amino-3,4-dioxo-1-phenylbutan-2-yl)-1-methyl-4-phenyl-1H-imidazole-5-carboxamide], the IC50 was more than 25 µM in assay [1]; less than 3 µM on Human Calpain 1/NS1; less than 3 µM at Human Calpain 9/NS1; less than 3 µM on Human Calpain 2/NS1; more than 25 µM in assay [2].
As for `Cc1cc(C(=O)N[C@@H](Cc2ccccc2)C(=O)C(N)=O)n(-c2ccccc2)n1` [Compound 276, (S)—N-(4-amino-3,4-dioxo-1-phenylbutan-2-yl)-3-methyl-1-phenyl-1H-pyrazole-5-carboxamide], the IC50 is less than 10 µM in assay [1]; less than 3 µM on Human Calpain 1/NS1; less than 3 µM on Human Calpain 9/NS1; less than 3 µM on Human Calpain 2/NS1; less than 10 µM in assay [2].
For `NC(=O)C(=O)[C@H](Cc1ccccc1)NC(=O)c1conc1-c1ccccc1F` [Compound 277, (S)—N-(4-amino-3,4-dioxo-1-phenylbutan-2-yl)-3-(2-fluorophenyl)isoxazole-4-carboxamide], the IC50 in assay [1] was 10 to 25 µM; on Human Calpain 1/NS1, less than 3 µM; at Human Calpain 9/NS1, less than 3 µM; at Human Calpain 2/NS1 it was less than 3 µM; in assay [2] it was less than 10 µM.
